According to US20230393118A1, “DEVICES AND METHODS FOR MONITORING CELLS, TISSUES, OR ORGANS-ON-A-CHIP” (University of Rochester, priority 2020, published 2023):

Columns and labels:
[1] = estimated in rodents in the literature; cited from earlier work
[2] = measured plasma drug concentration or target trough, provided by pharmaceutical makers as general guidelines; cited from earlier work
[3] = tested on: tendon fibroblasts; test: Tendon fibroblasts seeded on axially-constrained hydrogel treated with TGF-β1; assay type: cell-based; settings: fibroblasts differentiate into myofibroblasts
Description: Subsequently, activation of α-SMA+ve myofibroblasts is evident even after 28 dpi.

[4] = tested on: 16HBE cells; test: Real-time photonic ring sensor detection of cytokine secretion from 16HBE cells exposed to LPS; assay type: cell-based, human; settings: LPS 1 μg/mL in DMEM, 30 μL/min for 3 hours, 37° C.
Protocol: 16HBE cells were seeded on the membrane of the exemplar device and allowed to adhere to the membrane for 3 hours. The device was then connected to a peristaltic pump, which contacted the cells with Dulbecco's Modified Eagles' Medium (DMEM) at a low flow rate (˜30 μL/min) overnight. The next day, the device was set on a temperature-controlled stage (37° C.) and DMEM doped with LPS (at 1 μg/mL) was flowed over the cells (through the top channel) at 30 μL/min for 3 hours. Spectra were measured continuously to observe any shifts in resonance of the photonic ring resonators over time.
FIG. 1F is a graph with a Y axis showing the wavelength of light resonant in the test and the control ring sensors, with longer wavelengths towards the top, and an X axis showing time in seconds following exposure of the cells to LPS. […]
FIG. 1G presents graphs showing the results of subtracting the shifts in the […] (indicating non-specific binding) from that of the […] for two cytokines, IL-6 (left graph) and IL-1B (right-hand graph). […] For the reader's attention, it is noted that the scale of the two graphs is different, with much smaller quantities of cytokine being detected in the right-hand graph. […]

Molecule: CO[C@H]1C[C@@H]2CC[C@@H](C)[C@@](O)(O2)C(=O)C(=O)N2CCCC[C@H]2C(=O)O[C@H]([C@H](C)C[C@@H]2CC[C@@H](OCCO)[C@H](OC)C2)CC(=O)[C@H](C)/C=C(\C)[C@@H](O)[C@@H](OC)C(=O)[C@H](C)C[C@H](C)/C=C/C=C/C=C/1C [Everolimus]
- ED50 [1]: ~0.1 to 2.38 mg/kg
- Target whole blood trough concentrations (plasma concentrations) [2]: 5 to 15 ng/mL

Molecule: TGF-β1: cytokine used to induce myofibroblast differentiation in tendon fibroblasts
- α-SMA gene (Acta) expression and hydrogel lateral contraction [3]: dose-dependent increase

Molecule: CO[C@H]1C[C@@H]2CC[C@@H](C)[C@@](O)(O2)C(=O)C(=O)N2CCCC[C@H]2C(=O)O[C@H]([C@H](C)C[C@@H]2CC[C@@H](O)[C@H](OC)C2)CC(=O)[C@H](C)/C=C(\C)[C@@H](O)[C@@H](OC)C(=O)[C@H](C)C[C@H](C)/C=C/C=C/C=C/1C [Sirolimus]
- Target whole blood trough concentrations (plasma concentrations) [2]: 16 to 24 ng/mL

Molecule: Lipopolysaccharide [LPS]
- Time at which secretion of cytokines (IL-6, IL-1β) begins after LPS exposure [4]: about 70 minutes
